Here are results for 14 molecules from patent US12240844B2 (Voronoi, Inc., priority 2019, dated 2025).

The target in one test is T1, human GST-CLK1 (129-end) (Homo sapiens, UniProt P49759).
T1 construct: purified human GST-CLK1 (129-end, Signalchem) enzyme; GST; purchased Signalchem
The experiment in a line: GST-CLK1 enzyme inhibition, ADP-Glo kinase assay. The format is biochemical. The note with it: ATP 10 uM. In short, it runs like this:
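GST-CLK1 (129-end, 3 ng) reacted with 10 uM ATP and substrate in 40 mM Tris-HCl pH 7.4, 20 mM MgCl2, 0.5 mg/mL BSA, 50 uM DTT, 1 h at 25° C. ADP-Glo luminescence normalised to solvent control; IC50 from triplicate data.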

Another test has as its target LRRK2 (Homo sapiens, UniProt Q5S007). Kind of test: LRRK2 enzyme inhibition, ADP-Glo kinase assay. The test is classed as biochemical. The arrangement: purchased Invitrogen PR8604B. In short, it runs like this:
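Purified human LRRK2 (25 ng) in 40 mM Tris-HCl pH7.4, 20 mM MgCl2, 0.5 mg/ml BSA, 50 μM DTT with 10 μM ATP and substrate ([…]), 2 h at 25° C. Final compound 50 to 0.000001024 μM, 12-point dilution. ADP-Glo luminescence vs solvent control; IC50 (nM).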

For the next test, the system named is MDA-MB-231 cell line. Kind of test: MDA-MB-231 cancer cell proliferation inhibition (Cell Titer-Glo). The format is cell-based. Conditions: Homo sapiens, MDA-MB-231 triple-negative breast cancer cell line, 72 hours. On the procedure:
(§1) In order to evaluate the cancer cell proliferation inhibitory activity of the compounds of the present invention, the following experiments were performed.
(§2) To evaluate the cancer cell proliferation inhibitory effect, the cell growth rate analysis was performed while culturing MDA-MB-231 cell line (Korean Cell Line Bank #30026) and MDA-MB-468 cell line as the triple-negative breast cancer cell line, and SHP-77 (ATCC #CRL-2195) as the small cell lung cancer cell line in DMEM (HyClone #SH30243) and RPMI medium (HyClone #SH3027.01), respectively. More specifically, the cell lines were each plated at 2000 cells/100 μl in each well of a 96-well flat-bottom plate (coming #3903), and then the example compounds having eleven concentrations which were diluted by ⅓ so that the final concentrations were 10.000000, 3.333333, 1.111111, 0.370370, 0.123457, 0.041152, 0.013717, 0.004572, 0.001524, 0.000508 and 0.000169 μM were treated. After 72 hours, 100 μl of Cell Titer-Glo (Promega G7573) was treated, incubated at RT for 10 minutes, and then luminescence was measured using a microplate reader. The measured luminescence degree was calculated as GI50 using Prism (version 8.2 GraphPad) software.
(§3) In the table below, the following designations were used for the evaluation of proliferation inhibitory activity.

For test [1], the target named is T2, human GST-DYRK1A (full length) (Homo sapiens, UniProt Q13627).
T2 construct: purified human GST-DYRK1A (full length, Thermo scientifics) enzyme; GST; purchased Thermo scientifics
Kind of test: GST-DYRK1A enzyme inhibition, ADP-Glo kinase assay. The test is classed as biochemical. Conditions: read-out: DYRK1 IC50. In short, it runs like this:
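Full-length human GST-DYRK1A (10 ng) incubated with 10 uM ATP and specific substrate for 1 h at 25° C in 40 mM Tris-HCl pH 7.4, 20 mM MgCl2, 0.5 mg/mL BSA, 50 uM DTT. ADP formation read by ADP-Glo luminescence; IC50 (nM) versus solvent control, triplicate.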

The target in a further test is LRRK2 (G2019S) (Homo sapiens, UniProt Q5S007, G2019S). The experiment in a line: LRRK2 G2019S enzyme inhibition, ADP-Glo kinase assay. The test is classed as biochemical. The arrangement: purchased SignalChem L10-12GG. In short, it runs like this: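 Purified human LRRK2 G2019S (16 ng) with 25 μM ATP and 0.2 μg substrate, 2 h at 25° C in 40 mM Tris-HCl pH 7.4, 20 mM MgCl2, 0.5 mg/ml BSA, 50 μM DTT; compound at 12 final concentrations from 50 μM downward. ADP-Glo luminescence versus solvent control gave IC50 (nM).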
Chain of LRRK2 (G2019S) (Q5S007 970-2527 G2019S limits assumed): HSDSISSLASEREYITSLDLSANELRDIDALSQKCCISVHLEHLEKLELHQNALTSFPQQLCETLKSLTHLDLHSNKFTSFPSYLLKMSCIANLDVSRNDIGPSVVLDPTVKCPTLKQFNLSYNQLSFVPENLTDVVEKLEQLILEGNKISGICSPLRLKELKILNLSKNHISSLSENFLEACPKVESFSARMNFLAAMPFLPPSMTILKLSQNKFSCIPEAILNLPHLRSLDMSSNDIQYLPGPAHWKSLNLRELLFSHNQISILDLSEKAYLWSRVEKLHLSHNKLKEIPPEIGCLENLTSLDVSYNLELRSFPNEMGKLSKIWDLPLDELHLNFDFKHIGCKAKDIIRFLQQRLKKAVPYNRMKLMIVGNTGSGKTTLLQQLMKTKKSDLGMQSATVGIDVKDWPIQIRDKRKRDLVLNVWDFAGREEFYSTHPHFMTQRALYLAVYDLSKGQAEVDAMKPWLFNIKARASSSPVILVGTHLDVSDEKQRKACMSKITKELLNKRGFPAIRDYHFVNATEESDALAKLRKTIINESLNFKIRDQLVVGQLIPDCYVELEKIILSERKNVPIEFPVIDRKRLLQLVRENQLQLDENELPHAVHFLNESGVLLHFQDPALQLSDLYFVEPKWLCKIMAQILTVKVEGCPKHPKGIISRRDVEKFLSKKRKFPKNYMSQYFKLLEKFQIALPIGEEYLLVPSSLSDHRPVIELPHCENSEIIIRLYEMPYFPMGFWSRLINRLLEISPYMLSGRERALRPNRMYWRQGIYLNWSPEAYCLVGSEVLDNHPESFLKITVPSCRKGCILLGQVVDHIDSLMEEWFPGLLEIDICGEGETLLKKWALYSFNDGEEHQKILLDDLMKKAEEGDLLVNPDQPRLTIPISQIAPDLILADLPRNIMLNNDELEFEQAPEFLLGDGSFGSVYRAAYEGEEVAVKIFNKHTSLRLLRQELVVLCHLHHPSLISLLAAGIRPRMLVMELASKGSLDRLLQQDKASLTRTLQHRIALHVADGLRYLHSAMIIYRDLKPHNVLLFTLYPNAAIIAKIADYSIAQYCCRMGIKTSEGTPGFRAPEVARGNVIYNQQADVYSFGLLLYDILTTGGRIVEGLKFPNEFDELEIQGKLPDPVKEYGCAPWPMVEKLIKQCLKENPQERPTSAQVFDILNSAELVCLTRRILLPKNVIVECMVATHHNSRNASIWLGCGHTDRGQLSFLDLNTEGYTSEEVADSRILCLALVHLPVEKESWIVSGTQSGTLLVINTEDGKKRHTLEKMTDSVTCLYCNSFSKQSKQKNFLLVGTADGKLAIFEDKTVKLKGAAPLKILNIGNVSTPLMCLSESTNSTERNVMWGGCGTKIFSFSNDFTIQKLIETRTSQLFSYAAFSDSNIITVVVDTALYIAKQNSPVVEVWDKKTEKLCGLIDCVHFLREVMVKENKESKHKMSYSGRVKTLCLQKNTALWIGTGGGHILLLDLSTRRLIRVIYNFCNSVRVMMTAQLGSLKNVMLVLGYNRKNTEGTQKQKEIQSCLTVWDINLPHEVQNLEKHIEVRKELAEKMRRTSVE

Another test has as its system SHP-77. The experiment in a line: SHP-77 cancer cell proliferation inhibition (Cell Titer-Glo). The format is cell-based. Conditions: Homo sapiens, SHP77, SHP-77 small cell lung cancer cell line, 72 hours. As to the method:
as §1, §2, §3

pIC50: −log10 of the molar value.

T1 sequence (P49759 129-484 limits assumed): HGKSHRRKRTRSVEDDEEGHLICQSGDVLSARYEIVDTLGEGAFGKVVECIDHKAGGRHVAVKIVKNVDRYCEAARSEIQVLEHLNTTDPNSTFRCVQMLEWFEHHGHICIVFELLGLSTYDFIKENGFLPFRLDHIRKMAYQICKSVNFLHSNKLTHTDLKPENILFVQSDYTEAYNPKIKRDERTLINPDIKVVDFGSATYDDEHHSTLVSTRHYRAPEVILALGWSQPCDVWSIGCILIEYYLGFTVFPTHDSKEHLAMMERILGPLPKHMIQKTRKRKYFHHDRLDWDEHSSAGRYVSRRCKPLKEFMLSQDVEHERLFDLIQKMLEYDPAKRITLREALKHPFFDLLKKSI
Chain of LRRK2 (Q5S007 970-2527 limits assumed): as the sequence (Q5S007 970-2527 G2019S limits assumed) above, with S1050G counted along it

Turning to `CCCNc1cc(Nc2ccc(S(=O)(=O)N3CCC(N4CCOCC4)CC3)cc2OC)nc2[nH]cc(C#N)c12` [Example 139, 6-((2-methoxy-4-((4-morpholinopiperidin-1-yl)sulfonyl)phenyl)amino)-4-(propylamino)-1H-pyrrolo[2,3-b]pyridine-3-carbonitrile], the pIC50 is 6.00 to 6.52 on human GST-CLK1 (129-end), more than 7.00 against LRRK2, 6.00 to 6.52 in test [1] and more than 7.00 against LRRK2 (G2019S). In addition, the GI50 in the test with MDA-MB-231 cell line and in the test with SHP-77 was less than 50 nM throughout.
As to `COc1cc(S(=O)(=O)N2CCOCC2)ccc1Nc1cc(NCC(C)C)c2c(C(F)(F)F)c[nH]c2n1` [Example 189, N^4-isobutyl-N^6-(2-methoxy-4-(morpholinosulfonyl)phenyl)-3-(trifluoromethyl)-1H-pyrrolo[2,3-b]pyridine-4,6-diamine], the pIC50 (against human GST-CLK1 (129-end); against LRRK2; in test [1]; against LRRK2 (G2019S)) was 6.00 to 6.52 each time. For the same molecule, the GI50 with MDA-MB-231 cell line and in the test on SHP-77 was 301 to 1000 nM in each case.
As for `COc1cc(S(=O)(=O)N2CCOCC2)ccc1Nc1cc(NC2CC2)c2c(C#N)c[nH]c2n1` [Example 127, 4-(cyclopropylamino)-6-((2-methoxy-4-(morpholinosulfonyl)phenyl)amino)-1H-pyrrolo[2,3-b]pyridine-3-carbonitrile], the pIC50 against human GST-CLK1 (129-end) was 6.00 to 6.52; on LRRK2, more than 7.00; in test [1], 6.00 to 6.52; on LRRK2 (G2019S), 6.52 to 7.00. Moreover, the GI50 was 51 to 100 nM in the test on MDA-MB-231 cell line and less than 50 nM with SHP-77.
On to `COc1cc(S(=O)(=O)N2CCOCC2)ccc1Nc1cc(NC2CC2)c2c(C(F)(F)F)c[nH]c2n1` [Example 186, N^4-cyclopropyl-N^6-(2-methoxy-4-(morpholinosulfonyl)phenyl)-3-(trifluoromethyl)-1H-pyrrolo[2,3-b]pyridine-4,6-diamine], for which the pIC50 (against human GST-CLK1 (129-end); at LRRK2; in test [1]; at LRRK2 (G2019S)) was 6.00 to 6.52 each time. The GI50 in the test with MDA-MB-231 cell line and in the test on SHP-77 was 301 to 1000 nM each time.
Take `CCNc1cc(Nc2ccc(S(=O)(=O)N3CCOCC3)cc2OC)nc2[nH]cc(C#N)c12` [Example 132, 4-(ethylamino)-6-((2-methoxy-4-(morpholinosulfonyl)phenyl)amino)-1H-pyrrolo[2,3-b]pyridine-3-carbonitrile]: the pIC50 is 6.00 to 6.52 at human GST-CLK1 (129-end), more than 7.00 on LRRK2, 6.00 to 6.52 in test [1] and 6.52 to 7.00 at LRRK2 (G2019S). Also, the GI50 in the test with MDA-MB-231 cell line lay in the range of 101 to 300 nM; in the test on SHP-77 it was 51 to 100 nM.
With `CNc1cc(Nc2ccc(S(=O)(=O)N3CCC(N4CCOCC4)CC3)cc2OC)nc2[nH]cc(C#N)c12` [Example 137, 6-((2-methoxy-4-((4-morpholinopiperidin-1-yl)sulfonyl)phenyl)amino)-4-(methylamino)-1H-pyrrolo[2,3-b]pyridine-3-carbonitrile], the pIC50 at human GST-CLK1 (129-end) was 6.00 to 6.52; against LRRK2, more than 7.00; in test [1], 6.00 to 6.52; on LRRK2 (G2019S), more than 7.00. Further, the concentration for 50% growth inhibition (GI50) in the test on MDA-MB-231 cell line and with SHP-77 was 51 to 100 nM each time.
For `CNc1cc(Nc2ccc(S(=O)(=O)N3CCOCC3)c3c2OCCO3)nc2[nH]cc(C(F)(F)F)c12` [Example 98, N^4-methyl-N^6-(8-(morpholonosulfonyl)-2,3-dihydrobenzo[b] [1,4]dioxin-5-yl)-3-(trifluoromethyl)-1H-pyrrolo[2,3-b]pyridine-4,6-diamine], the pIC50 was 6.00 to 6.52 against human GST-CLK1 (129-end), 6.52 to 7.00 against LRRK2, 6.52 to 7.00 in test [1] and more than 7.00 at LRRK2 (G2019S). Besides, the GI50 is 101 to 300 nM in the test on MDA-MB-231 cell line and 301 to 1000 nM with SHP-77.
Turning to `CCCNc1cc(Nc2ccc(S(=O)(=O)N3CCOCC3)cc2OC)nc2[nH]cc(C#N)c12` [Example 133, 6-((2-methoxy-4-(morpholinosulfonyl)phenyl)amino)-4-(propylamino)-1H-pyrrolo[2,3-b]pyridine-3-carbonitrile], the pIC50 at human GST-CLK1 (129-end) was 6.00 to 6.52; on LRRK2, more than 7.00; in test [1], 6.00 to 6.52; at LRRK2 (G2019S) it was 6.00 to 6.52. The values for the GI50 in the test with MDA-MB-231 cell line and in the test on SHP-77 were 101 to 300 nM and 51 to 100 nM, respectively.
Consider `COc1cc(S(=O)(=O)N2CCC(N3CCOCC3)CC2)ccc1Nc1cc(NCC(C)C)c2c(C(F)(F)F)c[nH]c2n1` [Example 191, N^4-isobutyl-N^6-(2-methoxy-4-((4-morpholinopiperidin-1-yl)sulfonyl)phenyl)-3-(trifluoromethyl)-1H-pyrrolo[2,3-b]pyridine-4,6-diamine], for which the pIC50 against human GST-CLK1 (129-end) is 6.00 to 6.52; at LRRK2 it was 6.52 to 7.00; in test [1], 6.00 to 6.52; against LRRK2 (G2019S), 6.00 to 6.52. Moreover, the GI50 in the test on MDA-MB-231 cell line and in the test with SHP-77 was 301 to 1000 nM each time.
For the molecule `COc1cc(S(=O)(=O)N2CCOCC2)ccc1Nc1cc(NC2CCCCC2)c2c(C(F)(F)F)c[nH]c2n1` [Example 181, N^4-cyclohexyl-N^6-(2-methoxy-4-(morpholinosulfonyl)phenyl)-3-(trifluoromethyl)-1H-pyrrolo[2,3-b]pyridine-4,6-diamine], the negative-log IC50 (pIC50) (against human GST-CLK1 (129-end); against LRRK2; in test [1]; against LRRK2 (G2019S)) was 6.00 to 6.52 each time. Further, the GI50 in the test with MDA-MB-231 cell line and in the test with SHP-77 was 301 to 1000 nM each time.
As for `O=S(=O)(c1ccc(Nc2cc(C3CC3)c3c(C(F)(F)F)c[nH]c3n2)c2c1OCCO2)N1CCOCC1` [Example 100, 4-cyclopropyl-N-(8-(morpholinosulfonyl)-2,3-dihydrobenzo[b] [1,4]dioxin-5-yl)-3-(trifluoromethyl)-1H-pyrrolo[2,3-b]pyridine-6-amine], the pIC50 at human GST-CLK1 (129-end) is 6.00 to 6.52; against LRRK2 it was 6.00 to 6.52; in test [1], more than 7.00; on LRRK2 (G2019S), 6.00 to 6.52. Besides, the GI50 with MDA-MB-231 cell line and in the test on SHP-77 was 301 to 1000 nM each time.
Regarding `CNc1cc(Nc2ccc(S(=O)(=O)N3CCOCC3)cc2OC)nc2[nH]cc(C#N)c12` [Example 131, 6-((2-methoxy-4-(morpholinosulfonyl)phenyl)amino)-4-(methylamino)-1H-pyrrolo[2,3-b]pyridine-3-carbonitrile], the pIC50 against human GST-CLK1 (129-end) is 6.00 to 6.52; on LRRK2, more than 7.00; in test [1], 6.00 to 6.52; against LRRK2 (G2019S), more than 7.00. Also, the results for the 50% growth inhibitory concentration (GI50) in the test on MDA-MB-231 cell line and in the test on SHP-77 were 51 to 100 nM and less than 50 nM, respectively.
`CCCNc1cc(Nc2ccc(S(=O)(=O)N3CCOCC3)cc2OC)nc2[nH]cc(C(F)(F)F)c12` [Example 199, N^6-(2-methoxy-4-(morpholinosulfonyl)phenyl)-N^4-propyl-3-(trifluoromethyl)-1H-pyrrolo[2,3-b]pyridine-4,6-diamine]: the negative logarithm of the IC50 (pIC50) (against human GST-CLK1 (129-end); at LRRK2; in test [1]; against LRRK2 (G2019S)) was 6.00 to 6.52 throughout. Also, the GI50 in the test on MDA-MB-231 cell line and in the test with SHP-77 was 301 to 1000 nM each time.
In the case of `COc1cc(S(=O)(=O)N2CCC(N3CCOCC3)CC2)ccc1Nc1cc(NC2CC2)c2c(C#N)c[nH]c2n1` [Example 134, 4-(cyclopropylamino)-6-((2-methoxy-4-((4-morpholinopiperidin-1-yl)sulfonyl)phenyl)amino)-1H-pyrrolo[2,3-b]pyridine-3-carbonitrile], the pIC50 on human GST-CLK1 (129-end) is 6.52 to 7.00; against LRRK2, more than 7.00; in test [1], 6.00 to 6.52; at LRRK2 (G2019S), more than 7.00. Also, the GI50 with MDA-MB-231 cell line and in the test on SHP-77 was less than 50 nM in each case.
